Measured values: PubChem BioAssay (NCI)
Where “and” joins values, the source holds several entries; their conditions need not be identical. Identical values can stand only once.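 In this assay, cells in 96-well plates receive the compound at five concentrations for 48 hours. Endpoints are linearly interpolated between the surrounding concentrations. GI50 is the concentration that inhibits growth by half. At the TGI there is no net growth.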 Peptide text beside a SMILES is read from it. * marks the point of attachment. X26 = Clc1c(Cl)c(Cl)c(O*)c(Cl)c1Cl; Boc = CC(C)(C)OC(=O)*; OBn = c1ccc(CO*)cc1; Bn = c1ccc(C*)cc1

Legend:
Assay in all cases: NCI-60 cell line screen, 48 h
[1] = tested on: A549 NSCLC
[2] = tested on: HCT-15 colon
[3] = tested on: HOP-92 NSCLC
[4] = tested on: HS 578T breast
[5] = tested on: KM12 colon
[6] = tested on: MDA-MB-231 breast
[7] = tested on: MDA-MB-435
[8] = tested on: NCI-H460 lung
[9] = tested on: OVCAR-4 ovarian
[10] = tested on: RPMI-8226 leukemia

Row | SMILES | TGI [1] [µM] | TGI [2] [µM] | TGI [3] [µM] | TGI [4] [µM] | TGI [5] [µM] | TGI [6] [µM] | TGI [7] [µM] | TGI [8] [µM] | TGI [9] [µM] | TGI [10] | GI50 [1] [µM] | GI50 [2] [µM] | GI50 [3] [µM] | GI50 [4] [µM] | GI50 [5] [µM] | GI50 [6] [µM] | GI50 [7] [µM] | GI50 [8] [µM] | GI50 [9] [µM] | GI50 [10] [µM]
1 | CC1CCc2sc3nc4n(c(=O)c3c2C1)CC(C)S4 (stereo not given) | 70.5 | > 100 | 64.9 | > 100 | > 100 | 52.3 | > 100 | 65.2 | > 100 | > 100 µM |  |  |  |  |  |  |  |  |  | 
2 | COc1cc2[nH]c(=O)c3cc(-c4ccccc4)cc4c(Cl)nc(c1OC)c2c43 | > 71.7 | > 75.8 | > 79.3 | > 100 | > 100 | > 100 | 8.84 | > 82.9 | > 64.4 | > 100 µM |  |  |  |  |  |  |  |  |  | 
3 | Cn1nc2c(c1N)Cc1c(nn(C)c1N)-c1ccccc1-2 | > 100 | > 100 | > 100 | > 100 | > 100 | > 100 | > 100 | > 100 | > 100 | > 100 µM |  |  |  |  |  |  |  |  |  | 
4 | COCC#C[C@@]1(O)CCCCC1CC(OC)OC (stereo not given in full) | > 100 | > 100 | > 100 | > 100 | > 100 | > 100 | > 100 | > 100 | > 100 | 94.5 µM |  |  |  |  |  |  |  |  |  | 
5 | COc1ccc(C2Oc3c(OC)cc(CCCO)cc3C2CO)cc1OC (stereo not given) | > 100 | > 100 | > 100 | > 100 | > 100 | > 100 | > 100 | > 100 | > 100 | 60.4 µM and > 100 µM |  |  |  |  |  |  |  |  |  | 
6 | CCOc1ccc(NCC2CC/C(=C\C=C\c3ccccc3)C2=O)cc1 (stereo not given) | > 100 | 18.9 | 45.5 | 65.2 | 20.1 | 24.7 | 30.4 | > 80.8 | 73.9 | > 100 µM |  |  |  |  |  |  |  |  |  | 
7 | CC(=O)OCC(=O)O[C@@H]1[C@H]2[C@@H](OC(=O)c3ccccc3)[C@@H](C)C[C@]2(O)[C@H](OC(C)=O)[C@@]2(C)C[C@]1(OC(C)=O)C[C@H]1C(=O)C(C)(C)[C@@H](OC(C)=O)[C@@H]12 | > 25 | > 25 | > 25 | > 25 | > 25 | > 25 | > 25 | > 25 | > 25 | > 25 µM |  |  |  |  |  |  |  |  |  | 
8 | O=C(Sc1c(-c2ccccc2)c(=O)n(-c2ccccc2)c(=S)n1-c1ccccc1)c1ccco1 | > 100 | > 100 | > 92.6 | > 100 | > 100 | > 100 | > 100 | > 100 | > 100 | > 83.7 µM |  |  |  |  |  |  |  |  |  | 
9 | O=C1/C(=C/c2ccc(Cl)cc2)CCCc2ccc(F)cc21 | > 100 | > 100 | 34 | 62 | 34.2 | 52.8 | > 100 | 54 | 51.2 | 28.7 µM | 26.4 | 22.1 | 9.3 | 29.2 | 12.9 | 19.8 | 20.3 | 20.1 | 17.5 | 4.36
10 | CCCCCCCCCCCCOCCOCCOCCOCCOCCOCC(=O)NC(Cc1ccccc1)C(=O)Oc1ccc([N+](=O)[O-])cc1 (stereo not given) | > 100 | > 100 | > 100 | > 100 | > 100 | > 100 | > 100 | > 100 | > 100 | > 100 µM |  |  |  |  |  |  |  |  |  | 
11 | O=C1c2cccnc2S(=O)(=O)N1c1ccc([N+](=O)[O-])cc1 | > 100 | > 100 | > 100 | > 100 | > 100 | > 100 | > 100 | > 100 | > 100 | > 100 µM |  |  |  |  |  |  |  |  |  | 
12 | C[N+]1(CCN=C=NC2CCCCC2)CCOCC1 | > 100 | > 100 | > 100 | > 100 | > 100 | > 100 | > 100 | > 100 | > 100 | > 100 µM |  |  |  |  |  |  |  |  |  | 
13 | O=C(OC12CC3CC(CC(C3)C1)C2)c1ccc(NCc2cc(O)ccc2O)cc1 | 16.5 | 2.29 | 2.07 | 4.41 | 5.19 | 5.87 | 4.45 | 16.6 | 1.97 | 0.401 µM |  |  |  |  |  |  |  |  |  | 
14 | O=C(O)C1=NN(c2ccc(S(=O)(=O)O)cc2)C2(C1)C(Cl)C(=O)N2c1nc2ccccc2s1 (stereo not given) | 35.2 | 42.4 | 48.8 | > 100 | 34.1 | 37.5 | 32.6 | 33.2 | 35.3 | 35.6 µM |  |  |  |  |  |  |  |  |  | 
15 | Cc1cc(OCc2nnc3sc(NC(=O)c4ccccc4)nn23)ccc1Cl | > 100 | > 100 | 34.8 | 95.6 | 52.6 | > 100 | 50.2 | > 100 | > 100 | 69.2 µM |  |  |  |  |  |  |  |  |  | 
16 | CC(C)CC(NC(=O)C(CCC(=O)OCc1ccccc1)NC(=O)OC(C)(C)C)C(=O)NC(COCc1ccccc1)C(=O)NC(Cc1ccccc1)C(=O)Oc1c(Cl)c(Cl)c(Cl)c(Cl)c1Cl (stereo not given) (Boc-E(OBn)LS(Bn)F-X26; configuration not given here) | 96 | 51 | 43.8 | 65.9 | 47.1 | 34.5 | 95.3 | 59.8 | > 100 | 76.6 µM |  |  |  |  |  |  |  |  |  | 
